Results published in US6962930B1, “Compounds, compositions and method suitable for amelioration of withdrawal syndromes and withdrawal-induced brain damage” (Lohocla Research Corporation, priority 1997, dated 2005).

What was measured:
[1] = biological target: T1, NR1a/NR2A recombinant receptors (Homo sapiens, UniProt Q05586); experiment: NMDA-induced currents in oocytes expressing NR1a/NR2A; assay type: cell-based; conditions: 100 μM NMDA, 50 μM DCUKA, increasing glycine up to 100 μM
T1 construct: expressed in transfected cells; host or cells: Xenopus laevis oocytes, nuclear cDNA injection
Protocol: (§1) Oocytes were obtained from Xenopus laevis frogs (Nasco or Xenopus I) kept in aquarium tanks at 19–21° C., on a 12 hr light/dark cycle. Mature females were anesthetized by immersion for approximately 30 min in a 0.12% 3-aminobenzoic acid ethyl ester solution, a small incision was made in the abdominal wall and a piece of ovary was removed and placed in Modified Barth's solution (MBS; in mM) containing 88 NaCl, 1 KCl, 10 HEPES, 0.82 MgSO4, 2.4 NaHCO3, 0.91 CaCl2, 0.33 Ca(NO3)2 (pH 7.5). To facilitate manual dissection of oocytes, a section of ovary was transferred from MBS to a hypertonic buffer containing 108 mM NaCl, 2 mM KCl, 2 mM EDTA, 10 mM HEPES, pH 7.5 and theca and epithelial layers of mature oocytes (stages V and VI) were removed with surgical forceps. The follicular layer was removed by a 10 min immersion in 0.5 mg/ml of collagenase in buffer containing 83 mM NaCl, 2 mM KCl, 1 mM MgCl2 and 5 mM HEPES.
(§2) Human NR1a, NR2A and NR2B cDNAs in pCDNA-1Amp were transformed and amplified in XL-1 Blue cells and purified with the MaxPrep Qiagen kit. Oocytes were injected with cDNA into the nucleus in the following concentrations: NR1a/2A cDNAs 0.75 ng/30 nl 1:1 ratio, NR1a/2B cDNAs 3.0 ng/30 nl: 1:1 ratio. Injections were made with micropipettes (10 μm tip diameter) connected to a Drummond micropipettor attached to a micromanipulator. After injection, oocytes were individually placed in wells of 96-well microtiter plates containing incubation medium (MBS supplemented with 10 mg/l streptomycin, 10,000 U/l penicillin G, 50 mg/l gentamicin, 2 mM sodium pyruvate, 0.5 mM theophylline) that had been sterilized by passage through a […]. Oocytes were incubated at 19° C. for 2 to 4 days after injection.
(§3) Oocytes were placed in a rectangular chamber (approximately […]) and perfused (2 ml/min) with frog Ringer (in mM) containing 115 NaCl, 2.5 KCl, 1.8 CaCl2, 10 HEPES (pH 7.2). […] Control responses were always measured before and after addition of the DCUKA. […] Data are expressed as the % inhibition of the agonist response obtained in the absence of the drug.

[2] = biological target: T2, NR1a/NR2A recombinant receptors (Homo sapiens, UniProt Q05586+Q12879); experiment: as above; assay type: cell-based; conditions: 100 μM NMDA, 1 μM glycine, oocytes; read-out: IC50, inhibition of NMDA-induced currents
T2 construct: expressed in transfected cells; host or cells: Xenopus laevis oocytes, nuclear cDNA injection
Protocol: as §1, §2, §3

naive Swiss-Webster mice = experiment: Elevated plus-maze; assay type: in vivo; conditions: 100 or 500 mg/kg
Protocol: The anxiolytic effect of the DCUK-OMe was studied in naive Swiss-Webster mice using an elevated plus-maze apparatus. The plus-shaped maze consists of two arms which are open to the environment (about 30×5 cm) and two arms with side and end walls (about 30×5×15 cm). The arms are connected to a central area (about 5×5 cm) and the plus-maze is elevated from the floor to a height of about 50 cm.
All tests were conducted in a sound-attenuated room under low intensity light (25 Watt). […] A trained observer blind to the treatment conditions scored the number of entries into open arms, the number of entries into closed arms, the number of entries into the central area, the number of rears, and the number of grooming episodes over a 5-minute period. […] The percentage open arm entries was calculated for each animal and used as a measure of the anxiolytic/anxiogenic effects of drug treatment. In addition, the total number of entries made into either open or closed arms was recorded as a measure of drug effects on locomotor activity.
Mice were injected with either vehicle (5% Tween-80, 20% Intralipid) or 100 mg/kg or 500 mg/kg DCUK-OMe suspended in the vehicle about 90 minutes before testing in the plus-maze apparatus. Data were expressed as the percent increase in open arm entries of the drug treated animals compared to vehicle-injected mice. […] Data were analyzed using a one-way ANOVA on ranks. […]

O=C(O)c1cc(NC(=O)N(c2ccccc2)c2ccccc2)c2c(Cl)cc(Cl)cc2n1 [DCUKA, (N,N-diphenyl)-4-ureido-5,7-dichloro-2-carboxy-quinoline]
reversal by glycine of inhibition of NMDA-induced currents [1]: could not be overcome by glycine, even at a 100 μM concentration | IC50 [2]: 12.8 µM

COC(=O)c1cc(NC(=O)N(c2ccccc2)c2ccccc2)c2c(Cl)cc(Cl)cc2n1 [DCUK-OMe, (N,N-diphenyl)-4-ureido-5,7-dichloro-2-carboxy-quinoline methyl ester]
open arm entries (anxiolytic effect) (naive Swiss-Webster mice; about 90 minutes before testing): has anxyolitic activity | total arm entries (locomotor activity) (naive Swiss-Webster mice; compared to vehicle): did not show any increase in total arm entries
